# Test results taken from patent US8158560B2, “Insecticidal arylpyrroline compounds” (Bayer CropScience AG, priority 2009, dated 2012).
# Where “and” joins values, the source holds several entries; their conditions need not be identical. Equal values may be shown once.
# Columns and labels:
# Assay type in all cases: in vivo
# [1] = tested on: Myzus persicae-resistant strain, mixed population; test: Myzus persicae spray test (MYZUPE); conditions: 4 ppm, 6 dat
# Description: Myzus persicae—Spray Test (MYZUPE)
# Insect: Myzus persicae-resistant strain, mixed population
# Plant: Eggplant seedling (Solanum melongena var. Senryo 2gou) 2 leaf age (4-5 weeks after sowing), transplanted into vinyl pots of 60 mm diameter
# Solvent pre-mixture: Sorpol® SD: Sorpol® BDB:Dimethylformamide=3:3:14; 10 mg a.i. is solved with 0.05 ml solvent pre-mixture. Water for dilution contains RME and AS (1000 ppm each) or 0.1% of spreader. Solutions are diluted at the rate of 1:5 for limit concentration determination.
# Procedure: 1 day before treatment aphids are inoculated onto the testing plants, about 50 aphids per leaf, 100 for 1 pot. A paper label is placed on each pot. Solutions are sprayed directly onto both insects and plants. After drying pots are placed in the greenhouse at 20° C.-25° C. and 50-60% relative humidity.
# After the specified period of time the mortality in % is determined and the rate of death is calculated according to the following scheme/criteria: […]
# [2] = tested on: Aulacophora femoralis 2nd instar larvae; test: Aulacophora femoralis spray test (AUACFE); conditions: 0.8 ppm, 6 dat, rating scheme b297
# Description: Aulacophora femoralis—Spray Test (AUACFE)
# Insect: Aulacophora femoralis 2nd instar larvae from own culture;
# Material: PET cups with 5 ml soil and A-PET lids
# Plant: Cucumber (Cucumis sativus var. Hanshiro), cotyledon stage; 1 plant per pot;
# Solvent pre-mixture: Sorpol® SD: Sorpol® BDB:Dimethylformamide=3:3:14;
# 10 mg a.i. solved with 0.05 ml solvent pre-mixture. Water for dilution contains RME and AS (1000 ppm each) or 0.1% of spreader. Solutions are diluted at the rate of 1:5 for limit concentration determination.
# Procedure: Solutions are sprayed onto a plant. After drying, plants are cut and put on the soil in the testing cup. Five larvae L2 are released into each testing cup.
# The testing cup is covered with the lid and stored at 25° C. and 50-60% r.h., 16L8D lighting conditions.
# After the specified period of time, the mortality in % is determined according to the following scheme/criteria: […]
# [3] = tested on: Panonychus citri; test: Panonychus citri spray test (METTCI); conditions: 4 ppm, 7 dat, rating scheme b306
# Description: Panonychus citri—Spray Test (METTCI)
# Plant: Citrus plants, ca 8 cm height
# (§1) Solvent pre-mixture: Sorpol® SD: Sorpol® BDB:Dimethylformamide=3:3:14
# (§2) 10 mg a i. is solved with 0.05 ml solvent pre-mixture.
# (§3) Water for dilution contains RME and AS (1000 ppm each) or 0.1% of spreader. Solutions are diluted at the rate of 1:5 for limit concentration determination.
# Procedure: 1 day before treatment mites were inoculated onto potted citrus plants, about 50 adults and some nymphs for 1 pot. The test solution is sprayed directly onto both mites and plants. After drying pots are stored at 25° C.
# After the specified period of time mortality in % is determined by rating according to the following scheme/criteria.
# [4] = tested on: Nephotettix cincticeps-MR, resistant strain, 3rd-4th instar nymphs; test: Nephotettix cincticeps spray test (NEPHCI); conditions: 20 ppm, 7 dat
# Description: Nephotettix cincticeps-Spray Test (NEPHCl)
# Insect: Nephotettix cincticeps-MR, resistant strain, 3rd-4th instar nymphs from own culture
# Plant: Rice seedlings (Oryza sativa var. Tamanishiki)
# Material: ST-method container (200 ml desiccant polystyrene bottle) with a hole in the bottom sealed with metal mesh. The lid has a pit inside to keep desiccant, and it is used to sow rice seeds. The bottle is used upside down as “cover”, the lid with seedling is called “base”. Plastic stand-board with magnet labels to line the ST Bases up (“Stand”)
# Solvent pre-mixture: Sorpol® SD: Sorpol® BDB:Dimethylformamide=3:3:14 10 mg a i. is solved with 0.05 ml solvent pre-mixture. Water for dilution contains RME and AS (1000 ppm each) or 0.1% of spreader. Solutions are diluted at the rate of 1:5 for limit concentration determination.
# Procedure: On a pit in the center of a base (originally the desiccant space) pieces of paper towel are placed. 20-30 germinated rice seeds are sown on the paper and moistened with water. The base is covered with a plastic cup and kept in an incubator at 30° C. for five days.
# The base with rice seedlings is placed on the Stand. Each base is sprayed with the solution.
# After drying twelve 3rd-4th instar nymphs of Nephotettix cincticeps-MR are put on the base and confined with the cover. The ST containers on the Stands are kept in the testing room at 25° C. and 50-60% r.h., 16L8D lighting conditions.
# After the specified period of time mortality in % is determined by rating according to the following scheme/criteria: Counting living moving insects, calculate mortality in % by the formula: […]
# [5] = tested on: Bemisia tabacii biotype B; test: Bemisia tabacii spray test (BEMIAR); conditions: 100 ppm, 14 dat, rating scheme b324
# Description: Bemisia tabacii—Spray-Test (BEMIAR)
# Insect: Bemisia tabacii biotype B
# Plant: Tomato seedlings, 5 leaf stage in vinyl pots of 40 mm diameter
# as §1
# 10 mg a.i. is solved with 0.05 ml solvent pre-mixture. Water for dilution contains RME and AS (1000 ppm each) or 0.1% of spreader. Solutions are diluted at the rate of 1:5 for limit concentration determination.
# Procedure: Solutions are sprayed to the plants. After drying treated pots are placed in the greenhouse where breeding BEMIAR for an infection-time of 24 h. Then the plants is placed in the testing room at 25° C. and 50-60% r.h., 16L8D lighting conditions.
# After the specified period of time mortality in % is determined according to the following scheme/criteria: […]
# [6] = tested on: Adoxophyes honmai; test: Adoxophyes honmai test (ADXPFA), treated artificial diet; conditions: 0.8 ppm, 2 dat
# Description: Procedure: Broccoli seedlings of 4-5 leaf stage planted in a vinyl pot (9 cm diameter) are sprayed with the solution. After drying half of the leaves of the plants are cut and put into a A-PET cup. Ten larvae of Plutella xylostella L3 are released in the cup and the dish is placed at 25° C. After 4 days another half leaf is cut and added to the dish. After the specified period of time mortality in % is determined according to the figures of mortality used for evaluation. • 1 larva dead: 20% Efficacy • 5 larvae dead: 100% Efficacy Adoxophyes honmai—Test (ADXPFA)
# Insect: Adoxophyes honmai from own culture
# Material: 1 A-PET cup with lid
# Food agent: 4.5 g of artificial diet powder Silkmate-Kantan-3®
# as §1
# 10 mg a i. is solved with 0.05 ml solvent pre-mixture. Water for dilution contains RME and AS (1000 ppm each) or 0.1% of spreader. Solutions are diluted at the rate of 1:5 for limit concentration determination.
# Procedure: 4.5 g of artificial diet powder is put into a PET cup (10 cm diameter, 5 cm depth). The powder was leveled to make a layer in the bottom of the cup. […]
# (§4) After the specified period of time mortality in % is determined according to the following criteria: • 1 larva dead: 20% Efficacy • 5 larvae dead: 100% Efficacy Frankliniella occidentalis—Spray-Test (FRANOC)
# [7] = tested on: Frankliniella occidentalis; test: Frankliniella occidentalis spray test (FRANOC); conditions: 0.16 ppm, 7 dat
# Description: as §4
# Insect: Frankliniella occidentalis from own culture
# Plant: Cucumber seedlings, cotyledon stage
# as §1, §2, §3
# Procedure: The solution is sprayed to a cucumber seedling. After drying, the plant is placed in a plastic stand. About fifty 1st-instar larvae were inoculated to the plant and covered with a cage. The plant is stored at 25° C.
# After the specified period of time % efficacy is determined by rating feeding damages on the plant according to the following criteria: […]
molecule,measurement,setting,value
"4-{3-[3,5-Bis(trifluoromethyl)phenyl]-3-(trifluoromethyl)-3,4-dihydro-2H-pyrrol-5-yl}-2-methyl-N-(thietan-3-yl)benzamide [Compound 1-19]",Efficacy/day(s) of treatment,[1],90%/6 dat
same,Efficacy/day(s) of treatment,[1]; rating scheme,98%/6 dat
same,Efficacy/day(s) of treatment,[2],100%/6 dat
same,Efficacy/day(s) of treatment,[3],60%/7 dat
same,Efficacy/day(s) of treatment,[4],20%/7 dat and 80%/7 dat
same,Efficacy/day(s) of treatment,[5],100%/14 dat
same,Efficacy/day(s) of treatment,[6],60%/2 dat
same,Efficacy/day(s) of treatment,[7],98%/7 dat
"Cc1cc(C2=NOC(c3cc(C(F)(F)F)cc(C(F)(F)F)c3)(C(F)(F)F)C2)ccc1C(=O)NC1C[S+]([O-])C1 (stereo not drawn) [ExNo A-23 of WO 2009/080250, reference compound]",Efficacy/day(s) of treatment,[1],60%/6 dat
same,Efficacy/day(s) of treatment,[4],40%/7 dat
same,Efficacy/day(s) of treatment,[6],40%/2 dat
same,Efficacy/day(s) of treatment,[7],60%/7 dat
